According to patent US10681909B2, “Herbicidal triazoles” (FMC Corporation, priority 2014, dated 2020):

Tests used:
wheat (winter wheat) = assay: Test C preemergence; assay type: in vivo, Triticum aestivum; conditions: for Wheat plant response rating (0 to 100): Preemergence, visual rating after 13 to 15 d
Text: (§1) Seeds of plant species selected from blackgrass (Alopecurus myosuroides), ryegrass, Italian (Italian ryegrass, Lolium multiflorum), wheat (winter wheat, Triticum aestivum), galium (catchweed bedstraw, Galium aparine), corn (Zea mays), crabgrass, large (large crabgrass, Digitaria sanguinalis), foxtail, giant, (giant foxtail, Setaria faberii), johnsongrass (Sorghum halepense), lambsquarters (Chenopodium album), morningglory (Ipomoea coccinea), nutsedge, yellow (yellow nutsedge, Cyperus esculentus), pigweed (Amaranthus retroflexus), ragweed (common ragweed, Ambrosia elatior), soybean (Glycine max), barnyardgrass (Echinochloa crus-galli), oilseed rape (Brassica napus), waterhemp (common waterhemp, Amaranthus rudis), and velvetleaf (Abutilon theophrasti) were planted into a blend of loam soil and sand and treated preemergence with test chemicals formulated in a non-phytotoxic solvent mixture which included a surfactant. At the same time, plants selected from these crop and weed species and also chickweed (common chickweed, Stellaria media), oat, wild (wild oat, Avena fatua), and kochia (Kochia scoparia), were planted in pots containing Sunshine Redi-Earth® planting medium comprising spaghnum peat moss, vermiculite, starter nutrients and dolomitic limestone and treated with postemergence applications of test chemicals formulated in the same manner. Plants ranged in height from 2 to 18 cm (1- to 4-leaf stage) for postemergence treatments. […] A dash (-) response means no test result.

foxtail, giant = assay: Test C preemergence; assay type: in vivo, Setaria faberii; conditions: for Plant response rating (scale of 0 to 100 where 0 is no effect and 100 is complete control): Foxtail, Giant, preemergence; for Foxtail, Giant plant response rating (0 to 100): Preemergence, visual rating after 13 to 15 d
Text: as §1

soybean = assay: Test C preemergence; assay type: in vivo, Glycine max; conditions: for Soybean plant response rating (0 to 100): Preemergence, visual rating after 13 to 15 d
Text: as §1

barnyardgrass = assay: Test C preemergence; assay type: in vivo, Echinochloa crus-galli; conditions: for Plant response rating (scale of 0 to 100 where 0 is no effect and 100 is complete control): Barnyardgrass, preemergence; for Barnyardgrass plant response rating (0 to 100): Preemergence, visual rating after 13 to 15 d
Text: as §1

chickweed = assay: Test D preemergence; assay type: in vivo, Stellaria media; conditions: scale 0 to 100
Text: (§2) Seeds of plant species selected from bluegrass (annual bluegrass, Poa annua), blackgrass (Alopecurus myosuroides), canarygrass (Phalaris minor), chickweed (common chickweed, Stellaria media), galium (catchweed bedstraw, Galium aparine), bromegrass, down (downy bromegrass, Bromus tectorum), Russian thistle (Salsola kali), field poppy (Papaver rhoeas), field violet (Viola arvensis), foxtail, green (green foxtail, Setaria viridis), deadnettle (henbit deadnettle, Lamium amplexicaule), ryegrass, Ital. (Italian ryegrass, Lolium multiflorum), kochia (Kochia scoparia), lambsquarters (Chenopodium album), oilseed rape (Brassica napus), pigweed (Amaranthus retroflexus), chamomile (scentless chamomile, Matricaria inodora), speedwell (bird's-eye speedwell, Veronica persica), barley, spring (spring barley, Hordeum vulgare), wheat, spring (spring wheat, Triticum aestivum), buckwheat, wild (wild buckwheat, Polygonum convolvulus), wild mustard (Sinapis arvensis), oat, wild (wild oat, Avena fatua), radish, wild (wild radish, Raphanus raphanistrum), […]), barley, winter (winter barley, Hordeum vulgare), and wheat, winter (winter wheat, Triticum aestivum) were planted into a silt loam soil and treated preemergence with test chemicals formulated in a non-phytotoxic solvent mixture which included a surfactant. At the same time, these species were planted in pots containing Sunshine Redi-Earth® planting medium comprising spaghnum peat moss, vermiculite, starter nutrients and dolomitic limestone and treated with postemergence applications of the test chemicals formulated in the same manner. Plants ranged in height from 2 to 18 cm (1- to 4-leaf stage). Treated plants and controls were maintained in a controlled growth environment for 14 to 21 d after which time all species were compared to controls and visually evaluated. […] A dash (-) response means no test result.

deadnettle = assay: Test D preemergence; assay type: in vivo, Lamium amplexicaule; conditions: scale 0 to 100
Text: as §2

bluegrass = assay: Test D postemergence; assay type: in vivo, Poa annua; conditions: scale 0 to 100
Text: as §2

canarygrass = assay: Test D postemergence; assay type: in vivo, Phalaris minor; conditions: scale 0 to 100
Text: as §2

field poppy = assay: Test D postemergence; assay type: in vivo, Papaver rhoeas; conditions: scale 0 to 100
Text: as §2

field violet = assay: Test D postemergence; assay type: in vivo, Viola arvensis; conditions: scale 0 to 100
Text: as §2

oilseed rape = assay: Test D postemergence; assay type: in vivo, Brassica napus; conditions: scale 0 to 100
Text: as §2

chamomile = assay: Test D postemergence; assay type: in vivo, Matricaria inodora; conditions: scale 0 to 100
Text: as §2

buckwheat, wild = assay: Test D postemergence; assay type: in vivo, Polygonum convolvulus; conditions: scale 0 to 100
Text: as §2

wild mustard = assay: Test D postemergence; assay type: in vivo, Sinapis arvensis; conditions: scale 0 to 100
Text: as §2

radish, wild = assay: Test D postemergence; assay type: in vivo, Raphanus raphanistrum; conditions: scale 0 to 100
Text: as §2

## CCc1nc(-c2ccc(C(F)(F)F)cc2)nn1Cc1ccnc(C(F)(F)F)c1 [Compound 1, 4-[[5-ethyl-3-[4-(trifluoromethyl)phenyl]-1H-1,2,4-triazol-1-yl]methyl]-2-(trifluoromethyl)pyridine]
Wheat (winter wheat); 31 g ai/ha
  Wheat plant response rating (0 to 100): 0
Wheat (winter wheat); 62 g ai/ha
  Wheat plant response rating (0 to 100): 0
Wheat (winter wheat); Wheat, preemergence, 250 g ai/ha
  Plant response rating (scale of 0 to 100 where 0 is no effect and 100 is complete control): 5
foxtail, giant; 125 g ai/ha
  Plant response rating (scale of 0 to 100 where 0 is no effect and 100 is complete control): 100
foxtail, giant; 250 g ai/ha
  Plant response rating (scale of 0 to 100 where 0 is no effect and 100 is complete control): 100
foxtail, giant; 31 g ai/ha
  Foxtail, Giant plant response rating (0 to 100): 98
foxtail, giant; 62 g ai/ha
  Foxtail, Giant plant response rating (0 to 100): 98
soybean; 31 g ai/ha
  Soybean plant response rating (0 to 100): 0
soybean; 62 g ai/ha
  Soybean plant response rating (0 to 100): 5
soybean; Soybean, preemergence, 250 g ai/ha
  Plant response rating (scale of 0 to 100 where 0 is no effect and 100 is complete control): 20
barnyardgrass; 125 g ai/ha
  Plant response rating (scale of 0 to 100 where 0 is no effect and 100 is complete control): 55
barnyardgrass; 250 g ai/ha
  Plant response rating (scale of 0 to 100 where 0 is no effect and 100 is complete control): 70
barnyardgrass; 31 g ai/ha
  Barnyardgrass plant response rating (0 to 100): 10
barnyardgrass; 62 g ai/ha
  Barnyardgrass plant response rating (0 to 100): 35
chickweed; 31 g ai/ha
  Plant response rating: Chickweed: 90
chickweed; 62 g ai/ha
  Plant response rating: Chickweed: 100
chickweed; 125 g ai/ha
  Plant response rating: Chickweed: 100
chickweed; 250 g ai/ha
  Plant response rating: Chickweed: 100
deadnettle; 31 g ai/ha
  Plant response rating: Deadnettle: 100
deadnettle; 62 g ai/ha
  Plant response rating: Deadnettle: 100
deadnettle; 125 g ai/ha
  Plant response rating: Deadnettle: 100
deadnettle; 250 g ai/ha
  Plant response rating: Deadnettle: 100
bluegrass; 31 g ai/ha
  Plant response rating: Bluegrass: 10
bluegrass; 62 g ai/ha
  Plant response rating: Bluegrass: 20
bluegrass; 125 g ai/ha
  Plant response rating: Bluegrass: 35
bluegrass; 250 g ai/ha
  Plant response rating: Bluegrass: 55
canarygrass; 31 g ai/ha
  Plant response rating: Canarygrass: 15
canarygrass; 62 g ai/ha
  Plant response rating: Canarygrass: 20
canarygrass; 125 g ai/ha
  Plant response rating: Canarygrass: 35
canarygrass; 250 g ai/ha
  Plant response rating: Canarygrass: 65
Field poppy; 31 g ai/ha
  Plant response rating: Field Poppy: 70
Field poppy; 62 g ai/ha
  Plant response rating: Field Poppy: 100
Field poppy; 125 g ai/ha
  Plant response rating: Field Poppy: 100
Field poppy; 250 g ai/ha
  Plant response rating: Field Poppy: 100
Field violet; 31 g ai/ha
  Plant response rating: Field Violet: 100
Field violet; 62 g ai/ha
  Plant response rating: Field Violet: 100
Field violet; 125 g ai/ha
  Plant response rating: Field Violet: 100
Field violet; 250 g ai/ha
  Plant response rating: Field Violet: 100
Oilseed rape; 31 g ai/ha
  Plant response rating: Oilseed Rape: 70
Oilseed rape; 62 g ai/ha
  Plant response rating: Oilseed Rape: 80
Oilseed rape; 125 g ai/ha
  Plant response rating: Oilseed Rape: 100
Oilseed rape; 250 g ai/ha
  Plant response rating: Oilseed Rape: 100
chamomile; 31 g ai/ha
  Plant response rating: Chamomile: 25
chamomile; 62 g ai/ha
  Plant response rating: Chamomile: 35
chamomile; 125 g ai/ha
  Plant response rating: Chamomile: 55
chamomile; 250 g ai/ha
  Plant response rating: Chamomile: 65
buckwheat, wild; 31 g ai/ha
  Plant response rating: Buckwheat, Wild: 60
buckwheat, wild; 62 g ai/ha
  Plant response rating: Buckwheat, Wild: 80
buckwheat, wild; 125 g ai/ha
  Plant response rating: Buckwheat, Wild: 100
buckwheat, wild; 250 g ai/ha
  Plant response rating: Buckwheat, Wild: 100
Wild mustard; 31 g ai/ha
  Plant response rating: Mustard, Wild: 100
Wild mustard; 62 g ai/ha
  Plant response rating: Mustard, Wild: 100
Wild mustard; 125 g ai/ha
  Plant response rating: Mustard, Wild: 100
Wild mustard; 250 g ai/ha
  Plant response rating: Mustard, Wild: 100
radish, wild; 31 g ai/ha
  Plant response rating: Radish, Wild: 75
radish, wild; 62 g ai/ha
  Plant response rating: Radish, Wild: 100
radish, wild; 125 g ai/ha
  Plant response rating: Radish, Wild: 95
radish, wild; 250 g ai/ha
  Plant response rating: Radish, Wild: 95
